Our source for the GI50 and TGI values is PubChem BioAssay (NCI).

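Growth conditions: 96-well plates. Treatment: test compound, 48 hours, 5 concentrations. Analysis: linear interpolation between bracketing concentrations; unreached endpoints set to highest concentration. GI50: concentration for 50% inhibition of growth. TGI is the concentration that stops growth completely.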 A value given as a limit tells only on which side of the number the result lay.

Holding throughout (assay): NCI tumour cell line growth inhibition, 48 h
The subject of assay [1] is DU-145 prostate.
Assay [2] deals with T-47D breast.
The subject of assay [3] is MDA-MB-231 breast.

On to `Cc1cc(N/N=C/c2nc(-c3ccc(Cl)cc3)oc2C)c2cc(Cl)ccc2n1`, for which the GI50 was 2.45 µM in assay [1], 1.69 µM in assay [2] and 3.25 µM in assay [3]. The figures for the TGI in assay [1], in assay [2] and in assay [3] were 6.9 µM, 3.36 µM and 10.3 µM, respectively.

Consider `Cc1ccc(SC(=O)N2C(=S)NC(=NC3CCCCC3)C23CCCCC3)cc1`, for which the TGI in assay [1], in assay [2] and in assay [3] was greater than 100 µM in each case.

Consider `O=C1CCCN1CC#CCN1CCCC1`, for which the GI50 in assay [1], in assay [2] and in assay [3] was greater than 100 µM each time. Moreover, the TGI in assay [1], in assay [2] and in assay [3] was greater than 100 µM each time.

For the compound `COC(=O)CCCCCN=Cc1c(O)c(O)c(C(C)C)c2cc(C)c(-c3c(C)cc4c(C(C)C)c(O)c(O)c(C=NCCCCCC(=O)OC)c4c3O)c(O)c12`, the values for the GI50 in assay [1], in assay [2] and in assay [3] were 1.78 µM, 1.25 µM and 1.36 µM, respectively. Moreover, the figures for the TGI in assay [1], in assay [2] and in assay [3] were 21.1 µM, 29.4 µM and greater than 32.5 µM, respectively.

Take `N#C[C@@H]1C(n2ccc(N)nc2=O)O[C@H](CO)[C@H]1O` (stereo not given in full): the GI50 was 5.02 µM in assay [1], greater than 100 µM in assay [2] and greater than 100 µM in assay [3]. Moreover, the TGI in assay [1], in assay [2] and in assay [3] was greater than 100 µM throughout.

Turning to `CCN(CCNc1ccc(C)c2sc3ccccc3c(=O)c12)CC(C)(C)O`, the GI50 is 15.4 µM in assay [1], 13.4 µM in assay [2] and 6.88 µM in assay [3]. Moreover, the TGI in assay [1] is 38.2 µM; in assay [2], 47.3 µM; in assay [3] it was 23.7 µM.

As for `CCN1CSC(=S)N(CC)C1`, the TGI in assay [1] was greater than 100 µM; in assay [2], greater than 100 µM; in assay [3], 73.9 µM.

As to `CC(C)Oc1cc(O)c2c(c1)OCC=C2CCC(=O)O`, the TGI in assay [1], in assay [2] and in assay [3] was greater than 100 µM throughout.

In the case of `CC(C)(C)NC(=O)[C@H]1C[C@H]2CCCC[C@H]2CN1C[C@@H](O)[C@H](Cc1ccccc1)NC(=O)[C@H](CC(N)=O)NC(=O)c1ccc2ccccc2n1`, the GI50 in assay [1] was 1.78 µM; in assay [2] it was 13.8 µM; in assay [3], 13 µM. Besides, the TGI in assay [1] was 6.95 µM; in assay [2] it was 40.9 µM; in assay [3], 26.7 µM.

On to `C[C@]12CC[C@@H]3c4ccc(O)cc4C(O)C[C@H]3[C@@H]1CCC2=O` (stereo not given in full), for which the GI50 in assay [1], in assay [2] and in assay [3] was greater than 100 µM each time. For the same compound, the TGI in assay [1], in assay [2] and in assay [3] was greater than 100 µM each time.

As to `O=C(O)CSc1ncccc1[N+](=O)[O-]`, the TGI in assay [1], in assay [2] and in assay [3] was greater than 100 µM throughout.

As to `CCCCCCN(CCCCCC)CC(O)c1ccc2c3c(cccc13)CC2` (stereo not given), the GI50 was 11.6 µM in assay [1], 3.28 µM in assay [2] and 6.86 µM in assay [3]. Moreover, the TGI worked out at 24.7 µM in assay [1], 16.6 µM in assay [2] and 21.3 µM in assay [3].

On to `Cc1cc(=O)oc2cc(O)c(CN(C)CC(=O)O)cc12`, for which the TGI in assay [1], in assay [2] and in assay [3] was greater than 100 µM each time.

Regarding `COc1cc(S(C)(=O)=O)ccc1Nc1nc2ccc(-c3ccc(NC(=O)[C@H](C)c4ccc(F)cc4)cc3)cn2n1`, the GI50 in assay [1] was greater than 100 µM; in assay [2], 0.596 µM; in assay [3], 26.6 µM. Besides, the TGI in assay [1], in assay [2] and in assay [3] was greater than 100 µM in each case.

Take `Fc1cccc(Cl)c1/C=N\N=C1c2ccccc2-c2ccccc21`: the TGI in assay [1], in assay [2] and in assay [3] was greater than 100 µM throughout.

On to `CC1CCN(CC(=O)N2c3ccccc3Sc3cc4ccccc4cc32)CC1`, for which the TGI in assay [1], in assay [2] and in assay [3] was greater than 100 µM throughout.

Regarding `CC(=O)Nc1ccc(S(=O)(=O)NNC(=O)c2cccnc2Nc2ccc(Cl)cc2)cc1`, the GI50 in assay [1] was 34.3 µM; in assay [2], 6.28 µM; in assay [3] it was 41.6 µM. Also, the TGI in assay [1], in assay [2] and in assay [3] was greater than 100 µM in each case.

As for `C/C(=N\NC(N)=S)c1nc2ccc(Cl)cc2[nH]1`, the GI50 is 1.97 µM in assay [1], 4.48 µM in assay [2] and 3.53 µM in assay [3]. The TGI in assay [1] was 8.8 µM; in assay [2], greater than 50 µM; in assay [3], 37.9 µM.

For the compound `O=C1Nc2cccc3cc(NCC(O)CCl)cc1c23` (stereo not given), the TGI in assay [1], in assay [2] and in assay [3] was greater than 100 µM in each case.
